The text below walks through data of US20110129935A1, “PROTEIN STABILITY ASSAY USING A FLUORESCENT REPORTER OF PROTEIN FOLDING” (James Cook University, priority 2008, published 2011).

The target in assay [1] is CAT-GFP (Escherichia coli, UniProt P62577). The assay is classed as binding. As to conditions: 10 mM chloramphenicol, 9.2 mM ampicillin or 6.4% ethanol. As for the experimental part:
(§1) Protein samples (6 or 10 μl) were incubated along a temperature gradient in a thermocycler for 5 minutes or 30 minutes for the determination of Tagg, or at a constant temperature and increasing times to determine kagg. After heat treatment and centrifugation as described above, 3 or 5 μl of supernatant were transferred to a black 96-well plate (Nunclon, Nunc, Rochester, N.Y., USA), diluted with 47 or 50 μl respectively of Buffer A or Buffer B and the fluorescent Ffold was determined with a fluorescence plate reader (Victor V Wallace, Perkin-Elmer, Melbourne VIC, Australia). The excitation and emission filters were set at 355 nm and 535 nm respectively, with 40 nm band-width. Data were normalized against the fluorescence of an untreated sample.
To determine the effect of ligands, CAT-GFP reaction premix contained 9.2 μl of CAT-GFP (71 μM in Buffer A), 51.6 μl of Buffer A and 4.2 μl of either 50 mg/ml chloramphenicol in ethanol or 50 mg/ml ampicillin in water. GK-GFP reaction premix contained 9.3 μl of GK-GFP (70 μM), 49.20 of Buffer A and 6.5 μl of either Buffer A+10 mM glycerol or Buffer A+10 mM glucose. Reaction volume was 10 μl and 5 μl of the soluble fraction was analysed by plate reader after centrifugation.
The S method was then further developed to evaluate the effect of ligand binding and additives in a rapid throughput format for the three test proteins using replicates of single timepoints (FIG. 6a-6c). […] Indeed, the temperature used to test for chloramphenicol binding had to be kept quite low and for a short time as GFP would have been destabilized in more stringent conditions. […] This non-specific stabilization could also be attributed to the low stringency of the conditions.

Assay [2] has as its target Tus-GFP (Escherichia coli, UniProt P16525, Q80R). Put plainly: Isothermal aggregation of Tus-GFP with additives (kagg, S method). Details: species or system E. coli. The conditions noted are these: 46° C., 25% glycerol in 0.5× Buffer B. As for the experimental part:
as §1, with “sample. […]” for “sample.”
The kagg (s^−1) measured the loss of fluorescence of the soluble fraction of proteins over time. The kagg values were determined by the exponential fit of normalized Ffold as follows:
To evaluate the kinetic parameters of the system, a 96-well plate format was designed that enabled measurement of the residual Ffold of Tus-GFP over time. Isothermal aggregation reactions were monitored at 46° C. to quantify the effect of stabilizing or destabilizing salts and additives on the kagg of Tus-GFP (FIG. 3). […]

Assay [3] has as its target GK-GFP (Escherichia coli, UniProt P0A6F3). Put plainly: Rapid throughput S method, Ffold of GK-GFP with ligands or other proteins. The assay is classed as binding, E. coli. The conditions noted are these: 1 mM glycerol in presence of BSA 15 μM. On the procedure: as §1
To determine the effect of ligands, CAT-GFP reaction premix contained 9.2 μl of CAT-GFP (71 μM in Buffer A), 51.6 μl of Buffer A and 4.2 μl of either 50 mg/ml chloramphenicol in ethanol or 50 mg/ml ampicillin in water. GK-GFP reaction premix contained 9.3 μl of GK-GFP (70 μM), 49.20 of Buffer A and 6.5 μl of either Buffer A+10 mM glycerol or Buffer A+10 mM glucose. Reaction volume was 10 μl and 5 μl of the soluble fraction was analysed by plate reader after centrifugation. […]

GK-GFP, sequence (P0A6F3 other isoform, or with tags, fused parts or gaps): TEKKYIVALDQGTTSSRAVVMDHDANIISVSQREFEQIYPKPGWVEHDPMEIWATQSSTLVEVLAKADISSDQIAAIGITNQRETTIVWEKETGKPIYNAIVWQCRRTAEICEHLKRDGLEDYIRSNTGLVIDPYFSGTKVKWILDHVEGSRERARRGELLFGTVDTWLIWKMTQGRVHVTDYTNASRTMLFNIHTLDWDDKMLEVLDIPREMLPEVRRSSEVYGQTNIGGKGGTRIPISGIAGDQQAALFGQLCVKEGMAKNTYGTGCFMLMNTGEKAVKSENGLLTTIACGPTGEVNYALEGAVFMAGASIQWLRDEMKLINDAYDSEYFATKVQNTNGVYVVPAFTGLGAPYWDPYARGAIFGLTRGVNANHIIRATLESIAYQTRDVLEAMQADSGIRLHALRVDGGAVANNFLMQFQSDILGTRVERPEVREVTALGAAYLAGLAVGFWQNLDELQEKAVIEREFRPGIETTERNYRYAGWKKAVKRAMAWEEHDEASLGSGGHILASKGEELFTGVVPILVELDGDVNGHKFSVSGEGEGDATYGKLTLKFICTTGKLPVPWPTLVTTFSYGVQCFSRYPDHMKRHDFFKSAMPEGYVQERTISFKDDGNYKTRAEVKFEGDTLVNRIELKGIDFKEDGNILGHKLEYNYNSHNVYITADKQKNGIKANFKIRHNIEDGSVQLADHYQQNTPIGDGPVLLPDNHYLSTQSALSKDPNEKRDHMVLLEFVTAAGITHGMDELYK

Take `CC1(C)S[C@@H]2[C@H](NC(=O)[C@H](N)c3ccccc3)C(=O)N2[C@H]1C(=O)O` [ampicillin]: in assay [1], the “stabilization of CAT-GFP (Ffold)” value is listed as “moderate stabilization”.
As for `O=C(N[C@H](CO)[C@H](O)c1ccc([N+](=O)[O-])cc1)C(Cl)Cl` [chloramphenicol], the “stabilization of CAT-GFP (Ffold)” value in assay [1] was “stabilizing”.
Regarding `CCO` [ethanol], the “stabilization of CAT-GFP (Ffold)” value in assay [1] is recorded as “almost the same stabilizing effect”.
Consider `OCC(O)CO` [glycerol], for which, in assay [2], the “stabilization effect on Tus-GFP (kagg)” value is reported as “largest stabilization effect”. Moreover, in assay [3], the “stabilization of GK-GFP (Ffold)” value is listed as “almost completely stabilized”.
